Assays:
[1] = biological target: EGFR (human), P00533 [WT]; conditions: hl-7702
[2] = biological target: EGFR (human), P00533 [Inhibition of Proliferation of EGFR(WT, k-Ras mutation) in A549 Cells]
[3] = biological target: EGFR (human) (UniProt P00533); conditions: a431
[4] = biological target: EGFR (Human), P00533 [T790M/L858R]; conditions: h1975
Sequence of EGFR (Human), P00533 [T790M/L858R] (P00533 whole entry T790M/L858R, looked up): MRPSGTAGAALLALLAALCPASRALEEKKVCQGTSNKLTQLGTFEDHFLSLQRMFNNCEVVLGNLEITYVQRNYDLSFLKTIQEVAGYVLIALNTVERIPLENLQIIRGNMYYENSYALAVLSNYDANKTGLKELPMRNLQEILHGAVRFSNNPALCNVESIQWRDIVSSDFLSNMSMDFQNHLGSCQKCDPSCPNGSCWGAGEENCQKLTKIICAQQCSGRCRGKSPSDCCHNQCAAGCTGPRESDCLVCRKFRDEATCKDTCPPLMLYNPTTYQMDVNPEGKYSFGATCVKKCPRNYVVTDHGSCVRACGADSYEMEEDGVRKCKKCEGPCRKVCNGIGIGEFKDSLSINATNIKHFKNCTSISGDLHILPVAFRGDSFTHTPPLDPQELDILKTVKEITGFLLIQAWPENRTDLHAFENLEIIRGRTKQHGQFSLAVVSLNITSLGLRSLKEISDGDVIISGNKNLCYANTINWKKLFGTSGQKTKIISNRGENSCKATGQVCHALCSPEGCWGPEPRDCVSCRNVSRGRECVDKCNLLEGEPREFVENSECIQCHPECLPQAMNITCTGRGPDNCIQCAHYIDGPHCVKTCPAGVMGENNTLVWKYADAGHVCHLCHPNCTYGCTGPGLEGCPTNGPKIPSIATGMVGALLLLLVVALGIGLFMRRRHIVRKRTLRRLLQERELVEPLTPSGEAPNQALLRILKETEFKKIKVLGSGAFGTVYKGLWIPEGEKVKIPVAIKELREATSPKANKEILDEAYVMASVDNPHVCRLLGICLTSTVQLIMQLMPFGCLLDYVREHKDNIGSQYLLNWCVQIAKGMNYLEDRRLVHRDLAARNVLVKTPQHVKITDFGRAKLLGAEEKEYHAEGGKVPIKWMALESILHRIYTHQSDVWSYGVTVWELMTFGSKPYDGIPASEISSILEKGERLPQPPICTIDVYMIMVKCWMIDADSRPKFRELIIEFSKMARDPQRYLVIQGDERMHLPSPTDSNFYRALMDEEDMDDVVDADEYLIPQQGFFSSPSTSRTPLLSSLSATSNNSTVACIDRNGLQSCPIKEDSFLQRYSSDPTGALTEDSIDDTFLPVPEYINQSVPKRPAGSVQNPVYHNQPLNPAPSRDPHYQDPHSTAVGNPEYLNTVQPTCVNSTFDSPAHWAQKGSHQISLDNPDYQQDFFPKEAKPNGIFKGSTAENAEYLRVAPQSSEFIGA

Sequence of EGFR (human), P00533 [Inhibition of Proliferation of EGFR(WT, k-Ras mutation) in A549 Cells] (P00533 whole entry, looked up, change not shown): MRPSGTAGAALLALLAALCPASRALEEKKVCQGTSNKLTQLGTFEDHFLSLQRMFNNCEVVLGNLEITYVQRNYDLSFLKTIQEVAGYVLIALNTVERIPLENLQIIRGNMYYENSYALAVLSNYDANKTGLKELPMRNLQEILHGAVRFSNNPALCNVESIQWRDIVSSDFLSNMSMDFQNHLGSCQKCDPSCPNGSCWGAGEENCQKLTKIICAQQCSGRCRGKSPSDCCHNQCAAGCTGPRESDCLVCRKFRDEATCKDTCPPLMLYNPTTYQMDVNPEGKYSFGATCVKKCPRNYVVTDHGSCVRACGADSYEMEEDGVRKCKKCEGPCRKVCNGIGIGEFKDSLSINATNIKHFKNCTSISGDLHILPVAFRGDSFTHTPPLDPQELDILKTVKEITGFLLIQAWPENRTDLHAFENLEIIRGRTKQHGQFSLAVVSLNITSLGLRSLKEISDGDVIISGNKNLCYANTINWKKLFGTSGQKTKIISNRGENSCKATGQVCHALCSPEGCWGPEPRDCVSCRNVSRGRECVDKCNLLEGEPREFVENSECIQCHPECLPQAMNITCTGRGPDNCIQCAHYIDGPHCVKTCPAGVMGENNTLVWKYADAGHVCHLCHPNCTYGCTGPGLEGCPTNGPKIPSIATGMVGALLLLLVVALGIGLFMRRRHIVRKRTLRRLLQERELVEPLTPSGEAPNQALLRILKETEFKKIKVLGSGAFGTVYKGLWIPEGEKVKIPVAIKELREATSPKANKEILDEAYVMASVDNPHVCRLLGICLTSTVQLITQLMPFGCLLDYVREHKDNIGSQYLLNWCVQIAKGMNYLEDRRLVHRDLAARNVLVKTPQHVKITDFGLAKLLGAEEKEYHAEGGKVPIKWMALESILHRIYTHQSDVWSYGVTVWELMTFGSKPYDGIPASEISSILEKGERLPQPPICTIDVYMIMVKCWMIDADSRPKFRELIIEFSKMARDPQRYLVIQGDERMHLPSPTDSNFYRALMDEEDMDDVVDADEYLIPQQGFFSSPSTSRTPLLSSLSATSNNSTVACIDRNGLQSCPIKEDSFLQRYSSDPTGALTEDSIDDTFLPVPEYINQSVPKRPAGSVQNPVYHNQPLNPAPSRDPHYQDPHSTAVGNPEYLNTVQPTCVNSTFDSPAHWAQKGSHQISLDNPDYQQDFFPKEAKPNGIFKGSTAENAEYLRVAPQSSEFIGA
Sequence of EGFR (human), P00533 [WT] (P00533 whole entry, looked up): as the sequence (P00533 whole entry, looked up, change not shown) above
Sequence of EGFR (human) (P00533 whole entry, looked up): as the sequence (P00533 whole entry, looked up, change not shown) above

IC50 [1] [µM] | IC50 [2] [µM] | IC50 [3] [µM] | IC50 [4] [µM] | SMILES
> 10 |  |  |  | C=CC(=O)Nc1cccc(N2C(=O)N(C)Cc3cnc(Nc4ccc(N5CCN(C)CC5)cc4OC(C)C)nc32)c1
> 10 |  |  |  | C=CC(=O)Nc1cccc(N2C(=O)N(c3ccc(Oc4ccccc4)cc3)Cc3cnc(Nc4ccc(N5CCN(C)CC5)cc4OC)nc32)c1
> 10 | > 20 |  |  | C=CC(=O)Nc1cccc(N2C(=O)N(C)Cc3cnc(Nc4ccc(N(C)C)cc4OC)nc32)c1
 |  | > 10 |  | C=CC(=O)Nc1cccc(N2C(=O)N(C)Cc3cnc(Nc4ccc(N5CCN(C)CC5)cc4F)nc32)c1
> 10 |  |  |  | C=CC(=O)Nc1cccc(N2C(=O)N(C)Cc3cnc(Nc4ccc(N5CCN(C)CC5)cc4OC)nc32)c1
> 10 |  |  |  | C=CC(=O)Nc1cccc(N2C(=O)N(C)Cc3cnc(Nc4ccc(N5CCN(C)CC5)cc4C)nc32)c1
> 10 |  |  |  | C=CC(=O)Nc1cccc(N2C(=O)N(C)Cc3cnc(Nc4ccc(N5CCC(N(C)C)CC5)cc4OC)nc32)c1
> 10 | > 20 | > 10 |  | C=CC(=O)Nc1cccc(N2C(=O)N(C)Cc3cnc(NC)nc32)c1
> 10 | > 30 | > 10 | > 20 | CCC(=O)Nc1cccc(N2C(=O)N(C)Cc3cnc(Nc4ccc(N5CCN(C)CC5)cc4OC)nc32)c1
> 10 |  | > 10 |  | C=CC(=O)Nc1cccc(N2C(=O)N(C)Cc3cnc(Nc4ccc(N5CCOCC5)cc4OC)nc32)c1
> 10 |  |  |  | C=CC(=O)Nc1cccc(N2C(=O)N(C)Cc3cnc(Nc4ccccc4)nc32)c1
> 10 |  |  |  | C=CC(=O)Nc1cccc(N2C(=O)N(C(C)C)Cc3cnc(Nc4ccc(N5CCN(C)CC5)cc4OC)nc32)c1
> 10 |  |  |  | C=CC(=O)Nc1cccc(N2C(=O)N(C)Cc3cnc(Nc4ccc(N5CCN(C)CC5)cc4OCC)nc32)c1
> 10 | > 20 |  |  | C=CC(=O)Nc1cccc(N2C(=O)N(C)Cc3cnc(Nc4ccc(N5CCCN(C)CC5)cc4OC)nc32)c1
> 10 |  | > 10 | > 20 | COc1cc(N2CCN(C)CC2)ccc1Nc1ncc2c(n1)N(c1cccc(N)c1)C(=O)N(C)C2
> 10 |  |  |  | C=CC(=O)Nc1cccc(N2C(=O)N(C)Cc3cnc(Nc4ccc(N5CCCCC5)cc4OC)nc32)c1

Reference: the Kinase Knowledgebase extract (Sharma et al. 2016)
